# Experimental data reported in patent publication US20080027031A1, “Retinoids and Related Compounds for the Treatment of Neuroinflammatory Conditions, Diseases and Disorders” (KineMed, Inc., priority 2006, published 2008).
# Where two headings read alike, the source gives them in different places.
# Assays:
# [1] = test system: microglia; assay: Microglial proliferation in the EAE model of multiple sclerosis (2H2O labeling); assay type: in vivo, mouse; conditions: female C57BL/6 mice, MOG(35-55) immunization; isotretinoin 30 mg/kg/day i.p.; 7 days 2H2O labeling
# Protocol: FIG. 3 depicts the inhibition of Microglial Proliferation in the experimental autoimmune encephalomyelitis (EAE) model of neuroinflammation. Female c57bl/6 mice were labeled with ^2H2O for 7 days and received either sham or EAE immunizations. EAE was induced by subcutaneous injection of 100 μg synthetic MOG(35-55) peptide emulsified in 0.1 ml complete Freund's adjuvant on day 0. Pertussis toxin (400 ng) was injected intravenously on days 0 and 2. Minocycline (45 mg/kg, i.p.) was dissolved in saline and injected twice a day for the first 3 days, and once a day for the rest of the study. Accutane (30 mg/kg, i.p.) was dissolved in DMSO and injected once a day for the duration of the study. Data represent mean±SD of 5 animals per group. * Indicates significant difference (p<0.0001) between sham and EAE groups treated with vehicle, # indicates significant difference (p<0.0001) between vehicle and drug treated EAE groups. […]
# Analysis of cell turnover: GC/MS analysis was used to measure ^2H incorporation from ^2H2O into the deoxyribose moiety of purine deoxyribonucleotides during de novo DNA synthesis. Genomic DNA from microglia was isolated using a DNEasy tissue kit (Qiagen, Valencia, Calif.), and processed and analyzed by GC/MS. […]
# [2] = test system: microglia; conditions: for LPS-induced microglial proliferation: female C57BL/6 mice, LPS 1 mg/kg i.p. days 1, 3, 5, isotretinoin 40 mg/kg i.p. daily for 7 days, p<0.0001 vs LPS-treated animals
# Protocol: Female c57bl/6 mice were labeled with ^2H2O for 7 days and injected with LPS (1 mg/kg, i.p.) on days 1, 3 and 5. Accutane (40 mg/kg, i.p.) was administered daily for the duration of the study. […] LPS (1 mg/kg) was given on days 1, 3, and 5 of treatment. Isotretinoin (40 mg/kg/day) and 8% ^2H2O label were given for 7 days commencing on Day 1.
# Mice: All animal studies were carried out according to NIH guidelines for the care and use of laboratory animals and received prior approval by the KineMed internal animal care and use committee. 9-10 week old female C57/Bl6 mice (Taconic, Oxnard, Calif.) were housed in a climate controlled environment with a 12 hour light/dark cycle and were fed standard rodent chow and water ad libitum. For heavy water labeling, animals received a priming IP bolus of 35 ml/kg 0.9% NaCl in 99.9% ^2H2O and were maintained on 8% ^2H2O in drinking water until sacrifice.
# To induce neuroinflammation, C57/Bl6 mice received 1 mg/kg E. coli LPS (L4391, Sigma Chemical, St Louis, Mo.; serotype 0111:B4; stock of 0.2 mgs/ml in PBS) IP on days 1, 3, and 5 of ^2H2O labeling and were sacrificed the morning of day 8. In order to minimize dilution of body water ^2H enrichment in animals due to the volume of injections, 5% ^2H2O solution was used as the vehicle for LPS. Isotretinoin (Sigma) was dissolved in DMSO and administered IP daily at 40 mg/kg, drug treatment was maintained throughout the labeling period.
# Isolation and characterization of microglia: Anesthetized mice were transcardially perfused with ice-cold PBS (30 ml). Brains (without olfactory bulbs) were removed and kept in ice-cold PBS until processing. Tissue was passed once through a 1 mm mesh, and agitated in digestion buffer (12.5 ml of 150 mM NaCl, 5 mM KCl, 10 mM NaHCO3, 0.5 mM EDTA, 15 mM HEPES, 5 mM D-glucose, containing 0.5 mg/ml DNAse I [Roche] and 2.5 mg/ml trypsin [Sigma]) in a baffle flask for 25 minutes at 37° C. Trypsin was inactivated by the addition of 6.25 ml of media (1:1 Hams F10:DMEM, 10% FBS, 100,000 units/l penicillin G, 50 mg/l streptomycin sulfate, 2 mM L-glutamine). […]
# [3] = test system: EAE mice; assay: Clinical scores for EAE symptoms in EAE induced by MOG peptide; assay type: in vivo, mouse
# Protocol: Female C57BL/6 mice were immunized with MOG35-55 (EAE mice). All mice were labeled with 8% 2H2O for 1 week and received daily treatment with either vehicle or isotretinoin (10 mg/kg/day, ip). […] Data represent mean±SEM of 8 mice per group.
# EAE was induced by subcutaneous injection of 100 μg synthetic MOG(35-55) peptide (QCB, Hopkinton, Mass.), emulsified in 0.1 ml complete Freund's adjuvant (CFA; incomplete Freund's adjuvant containing 4 mg/ml heat-killed M. tuberculosis H37Ra; both from Difco/Becton Dickinson), on day 0. Pertussis toxin (400 ng; List Biological) was injected intravenously on days 0 and 2. Sham-immunized animals were injected with CFA and PBS. Labeling with ^2H2O and treatment with isotretinoin (30 mg/kg/day) was initiated on the day of immunization, drug t.
# Accordingly, the effect of isotretinoin was assessed on clinical symptoms of EAE during chronic treatment.
structure (smiles),measurement,setting,value
"CC1=C(/C=C/C(C)=C/C=C/C(C)=C\C(=O)O)C(C)(C)CCC1 [isotretinoin, 13-cis-retinoic acid]",microglial proliferation in the EAE model,[1],dramatically inhibited
same,LPS-induced microglial proliferation,[2],dramatically inhibited
same,LPS-induced microglial proliferation,[2]; listed as isotrentinoin,Inhibits Microglial Proliferation
same,suppression of proliferation of brain microglial cells under conditions of microglial stimulation,"[2]; overview statement, compared with clinically established inhibitors of neuroinflammation, including minocycline and glucocorticoids",as potent
same,delay of onset of clinical symptoms of EAE,"[3]; MOG35-55 immunized mice, isotretinoin 10 mg/kg/day ip from the day before immunization, untreated onset 14 days PI",1 week
same,severity of clinical symptoms (clinical score) of EAE,"[3]; between day 18 and day 25 PI vs vehicle-treated EAE mice, p<0.05, isotretinoin 10 mg/kg/day ip",reduced the severity of clinical symptoms significantly
